Structures can show the parent of a compound that is named as a salt. Where two headings read alike, the source gives them in different places.
Experiments:
[1] = target: T1, MMP-13CD (catalytic domain of collagenase 3) (Homo sapiens, UniProt P45452); assay: biochemical;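 also: inhibition of enzymatic thiopeptolide substrate cleavage (100 µM) in pH 6.0 MES buffer with CaCl2 and DTNB, comparing hydrolysis with versus without inhibitor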
[2] = target: T2, MMP-1FL (full-length interstitial collagenase) (Homo sapiens, UniProt P03956); assay: Thiopeptolide hydrolysis assay, MMP-1; type: biochemical; details: read-out: MMP01 IC50
T2 sequence (P03956 100-469): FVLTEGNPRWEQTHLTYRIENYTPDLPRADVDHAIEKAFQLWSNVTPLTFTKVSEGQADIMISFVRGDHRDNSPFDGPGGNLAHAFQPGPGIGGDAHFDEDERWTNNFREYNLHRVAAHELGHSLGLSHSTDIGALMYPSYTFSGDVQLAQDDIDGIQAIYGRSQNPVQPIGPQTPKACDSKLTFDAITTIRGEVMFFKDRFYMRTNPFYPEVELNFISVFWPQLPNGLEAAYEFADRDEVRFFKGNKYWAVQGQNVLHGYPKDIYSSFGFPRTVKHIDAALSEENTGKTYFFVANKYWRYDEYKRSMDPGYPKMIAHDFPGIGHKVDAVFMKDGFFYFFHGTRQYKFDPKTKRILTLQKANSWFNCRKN
Procedure: (§1) They measure the amount by which a test compound reduces the hydrolysis of a thiopeptolide substrate caused by a matrix metalloproteinase enzyme.
Thiopeptolide substrates show virtually no decomposition or hydrolysis in the absence of a matrix metalloproteinase enzyme. A typical thiopeptolide substrate commonly utilized for assays is Ac-Pro-Leu-Gly-thioester-Leu-Leu-Gly-OEt. A 100 μL assay mixture will contain 50 mM of 2-morpholinoethane sulfonic acid monohydrate (MES, pH 6.0) 10 mM CaCl2, 100 μM thiopeptolide substrate, and 1 mM 5,5′-dithio-bis-(2-nitro-benzoic acid) (DTNB). […] The change in absorbance at 405 nm is monitored on a Thermo Max microplate reader (moleucular Devices, Menlo Park, Calif.) at room temperature (22° C.). […] Assays are carried out with and without matrix metalloproteinase inhibitor compounds, and the amount of hydrolysis is compared for a determination of inhibitory activity of the test compounds.

[3] = target: T1, MMP-13CD (catalytic domain of collagenase 3); assay: Thiopeptolide hydrolysis assay, MMP-13;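 also: inhibition of enzymatic thiopeptolide substrate cleavage (100 µM) in pH 6.0 MES buffer with CaCl2 and DTNB, comparing hydrolysis with versus without inhibitor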
[4] = target: MMP-3CD (catalytic domain of stromelysin) (Homo sapiens, UniProt P08254); assay: Thiopeptolide hydrolysis assay, MMP-3; type: biochemical;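 also: inhibition of thiopeptolide substrate (100 µM) cleavage by the MMP-3 catalytic domain, detected with DTNB at pH 6.0 with CaCl2, hydrolysis compared against runs lacking inhibitor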
Chain of MMP-3CD (catalytic domain of stromelysin) (P08254 100-272 limits assumed): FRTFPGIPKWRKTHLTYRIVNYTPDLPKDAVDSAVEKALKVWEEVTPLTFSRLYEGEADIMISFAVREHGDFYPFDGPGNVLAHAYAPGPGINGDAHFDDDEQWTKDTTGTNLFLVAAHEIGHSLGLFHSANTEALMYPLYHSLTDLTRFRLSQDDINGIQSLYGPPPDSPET
Procedure: as §1
Thiopeptolide substrates show virtually no decomposition or hydrolysis in the absence of a matrix metalloproteinase enzyme. A typical thiopeptolide substrate commonly utilized for assays is Ac-Pro-Leu-Gly-thioester-Leu-Leu-Gly-OEt. A 100 μL assay mixture will contain 50 mM of 2-morpholinoethane sulfonic acid monohydrate (MES, pH 6.0) 10 mM CaCl2, 100 μM thiopeptolide substrate, and 1 mM 5,5′-dithio-bis-(2-nitro-benzoic acid) (DTNB). […] Assays are carried out with and without matrix metalloproteinase inhibitor compounds, and the amount of hydrolysis is compared for a determination of inhibitory activity of the test compounds.

Row | Compound | IC50 ([2]; Table 1b) [µM] | IC50 ([3]; MMP13 IC50 (μM), Table 1b) [µM] | IC50 ([4]; Table 1b, read-out: MMP03 IC50) [nM] | further results
1 | O=C(NCc1ccc2c(c1)OCO2)c1ccc2[nH]c(=O)n(Cc3ccncc3)c(=O)c2c1 [2,4-Dioxo-3-pyrid-4-ylmethyl-1,2,3,4-tetrahydroquinazoline-6-carboxylic acid (benzo[1,3]dioxol-5-ylmethyl)amide] | – | – | – | IC50 [1]: 0.051 µM
2 | O=C(OCc1ccncc1)c1cnc2[nH]c(=O)n(Cc3ccccc3)c(=O)c2c1 [4-Pyridylmethyl 3-benzyl-2,4-dioxo-1,2,3,4-tetrahydropyrido[2,3-d]-pyrimidine-6-carboxylate] | – | – | – | IC50 [1]: 0.062 µM
3 | Cn1c(=O)[nH]c(=O)c2cc(C(=O)NCc3ccc4c(c3)OCO4)ccc21 [Synthesis Example 37, 1-Methyl-2,4-dioxo-1,2,3,4-tetrahydroquinazoline-6-carboxylic acid (benzo[1,3]dioxol-5-ylmethyl)amide] | – | – | – | IC50 [1]: 0.92 µM
4 | O=C(OCc1ccccc1)c1ccc2c(c1)c(=O)n(Cc1ccncc1)c(=O)n2Cc1ccccc1 [Benzyl 1-benzyl-2,4-dioxo-3-pyrid-4-ylmethyl-1,2,3,4-tetrahydroquin-azoline-6-carboxylate] | – | – | – | IC50 [1]: 1.21 µM
5 | COc1cc(CNC(=O)c2ccc3c(c2)c(=O)n(Cc2ccccc2)c(=O)n3C)ccc1O [Synthesis Example 25, 3-Benzyl-1-methyl-2,4-dioxo-1,2,3,4-tetrahydroquinazoline-6-carboxylic acid 4-hydroxy-3-methoxybenzylamide] | – | – | – | IC50 [1]: 0.051 µM
6 | O=C(NCc1ccc2c(c1)OCO2)c1ccc2[nH]c(=O)n(Cc3cccs3)c(=O)c2c1 [Synthesis Example 30, 2,4-Dioxo-3-(thien-2-ylmethyl)-1,2,3,4-tetrahydroquinazoline-6-carboxylic acid (benzo[1,3]dioxol-5-ylmethyl)amide] | – | – | – | IC50 [1]: 0.029 µM
7 | O=C(NCc1ccc2c(c1)OCO2)c1ccc2c(c1)c(=O)n(Cc1ccccc1)c(=O)n2CC1CC1 [3-Benzyl-1-cyclopropylmethyl-2,4-dioxo-1,2,3,4-tetrahydroquin-azoline-6-carboxylic acid (benzo[1,3]dioxol-5-ylmethyl)amide] | – | – | – | IC50 [1]: 0.157 µM
8 | O=C(OCc1ccncc1)c1ccc2[nH]c(=O)n(Cc3cccs3)c(=O)c2c1 [Synthesis Example 47, 4-Pyridylmethyl 2,4-dioxo-3-thien-2-ylmethyl-1,2,3,4-tetrahydroquinazoline-6-carboxylate] | – | – | – | IC50 [1]: 0.016 µM
9 | Cn1c(=O)n(Cc2cccs2)c(=O)c2cc(C(=O)NCc3ccc4c(c3)OCO4)ccc21 [Synthesis Example 31, 1-Methyl-2,4-dioxo-3-(thien-2-ylmethyl)-1,2,3,4-tetrahydroquinazoline-6-carboxylic acid (benzo[1,3]dioxol-5-ylmethyl)amide] | – | – | – | IC50 [1]: 0.009 µM
10 | Cn1c(=O)n(Cc2ccccc2)c(=O)c2cc(C(=O)OCc3ccncc3)ccc21 [Synthesis Example 44, 4-Pyridylmethyl 3-benzyl-1-methyl-2,4-dioxo-1,2,3,4-tetrahydroquinazoline-6-carboxylate] | – | – | – | IC50 [1]: 0.004 µM
11 | CC(C)Cn1c(=O)n(Cc2ccccc2)c(=O)c2cc(C(=O)NCc3ccc4c(c3)OCO4)ccc21 [3-Benzyl-1-isobutyl-2,4-dioxo-1,2,3,4-tetrahydroquinazoline-6-carboxylic acid (benzo[1,3]dioxol-5-ylmethyl)amide] | – | – | – | IC50 [1]: 0.6 µM
12 | O=C(NCc1ccccc1)c1ccc2[nH]c(=O)n(Cc3ccccc3)c(=O)c2c1 [Synthesis Example 22, 3-Benzyl-2,4-dioxo-1,2,3,4-tetrahydroquinazoline-6-carboxylic acid benzylamide] | – | – | – | IC50 [1]: 0.193 µM
13 | Cc1c(=O)n(Cc2ccccc2)c(=O)n2cc(C(=O)NCc3ccc(F)cc3)sc12 | > 30 | 0.0245 | > 100000 | –
14 | COc1cccc(CNC(=O)c2cccc(C(=O)NCc3ccc(Cl)cc3)c2)c1 | – | – | – | IC50 ([2]; Table II): > 100 µM; IC50 ([3]; MMP13 IC50 (nM), Table II): 0.503 µM; IC50 ([4]; Table II, read-out: MMP03 IC50): > 100000 nM
15 | O=C(NCc1ccccc1)c1cn2c(=O)n(Cc3ccc(Cl)c(Cl)c3)c(=O)cc2s1 | > 30 | 0.293 | > 30000 | –
16 | COc1cccc(CNC(=O)c2cccc(C(=O)NCc3ccc(C)cc3)c2)c1 | – | – | – | IC50 ([2]; Table II): > 100 µM; IC50 ([3]; MMP13 IC50 (nM), Table II): 0.385 µM; IC50 ([4]; Table II, read-out: MMP03 IC50): 76000 nM
17 | Cc1c(=O)n(Cc2ccccc2)c(=O)n2cc(C(=O)NCc3cccc(F)c3)sc12 | > 30 | 0.12 | > 30000 | –
18 | COC(=O)c1ccc(CNC(=O)c2cccc(C(=O)NCc3cccc(OC)c3)c2)cc1 | – | – | – | IC50 ([2]; Table II): > 100 µM; IC50 ([3]; MMP13 IC50 (nM), Table II): 0.255 µM; IC50 ([4]; Table II, read-out: MMP03 IC50): 64000 nM
19 | Cc1nc(Cn2c(=O)c(C)c3sc(C(=O)NCc4ccc(F)cc4)cn3c2=O)cs1 | > 100 | 0.77 | > 30000 | –
20 | COC(=O)COc1ccc(C(=O)OCc2ccccc2)cc1C(=O)OCc1ccccc1 | – | – | – | IC50 ([2]; Table II): > 100 µM; IC50 ([3]; MMP13 IC50 (nM), Table II): 9.25 µM; IC50 ([4]; Table II, read-out: MMP03 IC50): > 100000 nM
21 | Cc1c(=O)n(Cc2ccc(C(=O)N3CCOCC3)cc2)c(=O)n2cc(C(=O)NCc3ccncc3)sc12 [hydrochloride] | > 100 | 0.037 | > 100000 | –
22 | COc1ccc(COC(=O)c2cccc(C(=O)OCc3ccc(OC)cc3)c2)cc1 [Isophthalic acid bis-(4-methoxy-benzyl) ester] | – | – | – | IC50 ([2]; Table II): > 100 µM; IC50 ([3]; MMP13 IC50 (nM), Table II): 1.07 µM; IC50 ([4]; Table II, read-out: MMP03 IC50): 51000 nM

Row | Compound | IC50 ([2]; Table 1b) [µM] | IC50 ([3]; MMP13 IC50 (μM), Table 1b) [µM] | IC50 ([4]; Table 1b, read-out: MMP03 IC50) [nM] | further results
23 | Cc1c(=O)n(Cc2ccc(C#N)cc2)c(=O)n2cc(C(=O)NCc3ccncc3)sc12 [hydrochloride] | > 30 | 0.0547 | > 30000 | –
24 | COc1ccc(CNC(=O)c2cn3c(=O)n(Cc4ccccc4)c(=O)c(C)c3s2)cc1F | > 100 | 0.025 | 12000 | –
25 | COC(=O)c1ccc(Cn2c(=O)c(C)c3sc(C(=O)NCc4cccc(F)c4)cn3c2=O)cc1 | > 30 | 0.0715 | 19000 | –
26 | COc1cccc(CNC(=O)c2cccc(C(=O)NCc3cccnc3)c2)c1 | – | – | – | IC50 ([2]; Table II): > 100 µM; IC50 ([3]; MMP13 IC50 (nM), Table II): 7.93 µM; IC50 ([4]; Table II, read-out: MMP03 IC50): > 100000 nM
27 | Cc1c(=O)n(Cc2ccccc2)c(=O)n2cc(C(=O)NCc3ccc(Cl)cc3)sc12 | > 30 | 0.0869 | 23000 | –
28 | Cc1c(=O)n(Cc2ccccc2)c(=O)n2cc(C(=O)NCc3ccncc3)sc12 [hydrochloride] | > 30 | 0.0487 | > 30000 | –
29 | Cc1c(=O)n(Cc2ccccc2)c(=O)n2cc(C(=O)NCc3ccc(C(F)(F)F)cc3)sc12 | > 30 | 2.21 | > 100000 | –
30 | COc1cc(CNC(=O)c2cccc(C(=O)NCc3ccc(F)c(OC)c3)c2)ccc1F [N,N′-Bis-(4-fluoro-3-methoxy-benzyl)-isophthalamide] | – | – | – | IC50 ([2]; Table II): > 100 µM; IC50 ([3]; MMP13 IC50 (nM), Table II): 0.93 µM; IC50 ([4]; Table II, read-out: MMP03 IC50): > 100000 nM
31 | COc1ccc(CNC(=O)c2cn3c(=O)n(Cc4ccc(C(=O)O)cc4)c(=O)c(C)c3s2)cc1 [sodium salt] | > 100 | 0.00175 | 36000 | –
32 | O=C(NCc1ccc(Cl)cc1)c1cccc(C(=O)NCc2ccc(Cl)cc2)c1 [N,N′-Bis-(4-chloro-benzyl)-isophthalamide] | – | – | – | IC50 ([2]; Table II): 79 µM; IC50 ([3]; MMP13 IC50 (nM), Table II): 5.5 µM; IC50 ([4]; Table II, read-out: MMP03 IC50): 9400 nM
33 | COC(=O)Nc1cc(Cn2c(=O)c(C)c3sc(C(=O)NCc4ccc(F)cc4)cn3c2=O)on1 | > 30 | 0.205 | > 30000 | –
34 | Cc1c(=O)n(Cc2ccc(C#N)cc2)c(=O)n2cc(C(=O)NCc3ccc(F)cc3)sc12 | > 100 | 0.023 | 25000 | –
35 | COc1ccc(CNC(=O)c2cn3c(=O)n(Cc4ccc(C(=O)OCCN(C)C)cc4)c(=O)c(C)c3s2)cc1 [hydrochloride] | > 30 | 0.0455 | > 100000 | –
36 | O=C(OCc1ccccc1)c1cccc(C(=O)OCc2ccccc2)c1 [Isophthalic acid dibenzyl ester] | – | – | – | IC50 ([2]; Table II): > 100 µM; IC50 ([3]; MMP13 IC50 (nM), Table II): 2.3 µM; IC50 ([4]; Table II, read-out: MMP03 IC50): > 30000 nM
37 | COc1ccc(CNC(=O)c2cccc(C(=O)NCc3ccccc3)c2)cc1 [N-Benzyl-N′-(4-methoxy-benzyl)-isophthalamide] | – | – | – | IC50 ([2]; Table II): > 100 µM; IC50 ([3]; MMP13 IC50 (nM), Table II): 2.42 µM; IC50 ([4]; Table II, read-out: MMP03 IC50): > 100000 nM
38 | Cc1c(=O)n(Cc2ccc(Cl)cc2)c(=O)n2cc(C(=O)NCc3ccncc3)sc12 | > 30 | 0.053 | > 30000 | –
39 | COc1ccc(CNC(=O)c2cccc(C(=O)NCc3ccc4c(c3)OCO4)c2)cc1 | – | – | – | IC50 ([2]; Table II): > 100 µM; IC50 ([3]; MMP13 IC50 (nM), Table II): 1.65 µM; IC50 ([4]; MMP03 IC50 (nM), Table II): > 100000 nM
40 | Cc1c(=O)n(Cc2ccc(C(=O)N3CCOCC3)cc2)c(=O)n2cc(C(=O)NCc3ccc(F)cc3)sc12 | > 30 | 0.011 | > 30000 | –
41 | Cc1cccc(CNC(=O)c2cn3c(=O)n(Cc4ccccc4)c(=O)c(C)c3s2)c1 | > 100 | 0.025 | 19000 | –
42 | O=C(NCc1ccccc1)c1cn2c(=O)n(C(=O)c3ccccc3)c(=O)cc2s1 | > 30 | 6.7 | > 30000 | –
43 | O=C(NCc1cccc(F)c1)c1cccc(C(=O)NCc2cccc(F)c2)c1 [N,N′-Bis-(3-fluoro-benzyl)-isophthalamide] | – | – | – | IC50 ([2]; Table II): > 100 µM; IC50 ([3]; MMP13 IC50 (nM), Table II): 5.65 µM; IC50 ([4]; Table II, read-out: MMP03 IC50): > 100000 nM
44 | COc1ccc(C(=O)NCc2ccc3c(c2)OCO3)cc1C(=O)NCc1ccc2c(c1)OCO2 [N,N′-Bis-1,3-benzodioxol-5-ylmethyl-4-methoxy-isophthalamide] | – | – | – | IC50 ([2]; Table II): > 100 µM; IC50 ([3]; MMP13 IC50 (nM), Table II): 0.185 µM; IC50 ([4]; Table II, read-out: MMP03 IC50): 50000 nM

From patent publication US20050004126A1 (priority 2001, published 2005)
